From ChEMBL document CHEMBL5352480, “Discovery of potent 1,1-diarylthiogalactoside glycomimetic inhibitors of Pseudomonas aeruginosa LecA with antibiofilm properties” (Eur J Med Chem, 2023) come the findings set out here.

Data set [1] deals with T1, PA-I galactophilic lectin (Pseudomonas aeruginosa (strain ATCC 15692 / PAO1 / 1C / PRS 101 / LMG12228), UniProt Q05097).
T1 sequence (Q05097 whole entry): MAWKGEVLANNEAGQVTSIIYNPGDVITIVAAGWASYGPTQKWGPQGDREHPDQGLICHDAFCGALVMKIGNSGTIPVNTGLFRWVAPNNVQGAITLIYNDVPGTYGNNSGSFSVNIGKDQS
Briefly: Binding affinity to Pseudomonas aeruginosa LecA.

Data set [2] has as its target T1, PA-I galactophilic lectin. Briefly: Binding affinity to Pseudomonas aeruginosa LecA expressed in Escherichia coli BL21 (DE3) cells assessed as dissociation constant by isothermal titration calorimetry. (In general: In ITC the heat of successive injections is recorded.)
The target in data set [3] is T2, PA-I galactophilic lectin (Pseudomonas aeruginosa (strain ATCC 15692 / PAO1 / 1C / PRS 101 / LMG12228)) (UniProt Q05097).
T2 sequence (whole entry): T1 sequence (Q05097 whole entry)
Briefly: Binding affinity to Pseudomonas aeruginosa LecA expressed in Escherichia coli BL21 (DE3) cells assessed as gibbs free energy change by isothermal titration calorimetry.

For data set [4], the target named is T2, PA-I galactophilic lectin (Pseudomonas aeruginosa (strain ATCC 15692 / PAO1 / 1C / PRS 101 / LMG12228)). Briefly: Binding affinity to Pseudomonas aeruginosa LecA expressed in Escherichia coli BL21 (DE3) cells assessed as change in enthalpy by isothermal titration calorimetry.
For data set [5] the target is unchanged. Briefly: Binding affinity to Pseudomonas aeruginosa LecA expressed in Escherichia coli BL21 (DE3) cells assessed as change in entropy by isothermal titration calorimetry.
Data set [6] has as its target T1, PA-I galactophilic lectin. In words: Binding affinity to Pseudomonas aeruginosa LecA assessed as dissociation constant by isothermal titration calorimetry.
Data set [7] has as its system Pseudomonas aeruginosa. In words: Antibiofilm activity against Pseudomonas aeruginosa PA01 (CIP 104116) assessed as inhibition of biofilm formation at 5 mM measured after 2 to 24 hrs relative to control. The format is functional. Details: scale not given: the % may be the effect or the level left. To be noted: time 2-24 hrs.
Data set [8] has as its system Pseudomonas aeruginosa. In words: Antibiofilm activity against Pseudomonas aeruginosa PA01 (CIP 104116) assessed as log reduction of biofilm formation at 5 mM measured after 2 to 24 hrs. Type of data set: functional. To be noted: time 2-24 hrs.
In data set [9] the test system is MRC5. Briefly: Cytotoxicity against human MRC5 cells assessed as reduction in cell viability at 1.25 mM measured after 24 hrs by MTT assay. Type of data set: toxicity, cell-based. To be noted: mrc5, 24 h, 1250 µM. In general terms: Tetrazolium dyes change colour on reduction, which living cells bring about.
The subject of data set [10] is MRC5. In words: Cytotoxicity against human MRC5 cells assessed as reduction in cell viability at upto 1.25 mM measured after 24 hrs by MTT assay. The format is toxicity, cell-based. To be noted: mrc5, 24 h, 1250 µM.
In data set [11] the test system is Pseudomonas aeruginosa. Briefly: Antibacterial activity against Pseudomonas aeruginosa PAO1. Type of data set: functional.
For data set [12], the system named is Pseudomonas aeruginosa. Briefly: Bactericidal activity against Pseudomonas aeruginosa PAO1. The format is functional.
Data set [13] deals with MRC5. In words: Cytotoxicity against human MRC5 cells assessed as cell viability at 5 mM measured after 24 hrs by MTT assay. To be noted: mrc5, 24 h, 5000 µM.
The subject of data set [14] is MRC5. Briefly: Cytotoxicity against human MRC5 cells assessed as cell viability at 2.5 mM measured after 24 hrs by MTT assay. The note with it: mrc5, 24 h, 2500 µM.
Data set [15] concerns Pseudomonas aeruginosa. Briefly: Antibiofilm activity against Pseudomonas aeruginosa PA01 (CIP 104116) assessed as inhibition of biofilm formation measured after 2 to 24 hrs. Type of data set: functional, organism-based. The note with it: dose 0.08-5 mM, time 2-24 hrs.
Data set [16] has as its system Pseudomonas aeruginosa. In words: Antibiofilm activity against Pseudomonas aeruginosa PA01 (CIP 104116) assessed as inhibition of biofilm formation at 0.08 to 5 mM measured after 2 to 24 hrs relative to control. Type of data set: functional. Details: scale not given: the % may be the effect or the level left. To be noted: dose 0.08-5 mM, time 2-24 hrs.

The Kd is the free concentration of one partner at which half of the binding sites on the other are occupied at equilibrium, for simple one-to-one binding. As usually defined, the viability is a read-out of living cells in per cent, often relative to untreated cells. For orientation: MIC means the lowest concentration found to suppress growth. In general, MBC refers to the lowest tested concentration that kills the bacteria rather than only halting them.

In [1], `CC(C)(C)c1cc2c(OCc3cn(CCOCCOCCO[C@@H]4O[C@H](CO)[C@H](O)[C@H](O)[C@H]4O)nn3)c(c1)Cc1cc(C(C)(C)C)cc(c1OCc1cn(CCOCCOCCO[C@@H]3O[C@H](CO)[C@H](O)[C@H](O)[C@H]3O)nn1)Cc1cc(C(C)(C)C)cc(c1OCc1cn(CCOCCOCCO[C@@H]3O[C@H](CO)[C@H](O)[C@H](O)[C@H]3O)nn1)Cc1cc(C(C)(C)C)cc(c1OCc1cn(CCOCCOCCO[C@@H]3O[C@H](CO)[C@H](O)[C@H](O)[C@H]3O)nn1)C2` returned a Kd of 0.176 µM.
Take `O=Cc1ccc(S[C@@H]2O[C@H](CO)[C@H](O)[C@H](O)[C@H]2O)cc1`: the Kd in data set [2] turned out to be 9.2 µM. In data set [3], the deltaG is -6.86 kcal/mol. Further, in [4], the deltaH is -9.85 kcal/mol. The TdeltaS in [5] was -2.99 kcal/mol.
For the compound `OC[C@H]1O[C@@H](OCc2cn([C@@H]3[C@H](O)[C@@H](O)[C@H](c4cn([C@H]5[C@H](O)[C@@H](O)[C@H](n6cc([C@@H]7O[C@H](CO)[C@@H](n8cc(CO[C@@H]9O[C@H](CO)[C@H](O)[C@H](O)[C@H]9O)nn8)[C@H](O)[C@H]7O)nn6)O[C@@H]5CO)nn4)O[C@@H]3CO)nn2)[C@H](O)[C@@H](O)[C@H]1O`, the Kd in data set [6] is 0.028 µM.
Turning to `C=C(c1cc(OC)c(OC)c(OC)c1)c1ccc(OC)c(S[C@@H]2O[C@H](CO)[C@H](O)[C@H](O)[C@H]2OC(C)=O)c1`, in [2], the Kd amounted to 6.9 µM. The deltaG in [3] was -7.03 kcal/mol. Further, the deltaH in data set [4] is -8.6 kcal/mol. Also, in [5], the TdeltaS is -1.58 kcal/mol.
With `C=C(c1ccc(OC)cc1)c1ccc(S[C@@H]2O[C@H](CO)[C@H](O)[C@H](O)[C@H]2O)cc1`, the Kd in data set [2] came out at 3 µM. In addition, the deltaG in data set [3] is -7.55 kcal/mol. Further, the deltaH in [4] is -11.1 kcal/mol. In [5], the TdeltaS was -3.59 kcal/mol.
On to `C=C(c1ccc(S[C@@H]2O[C@H](CO)[C@H](O)[C@H](O)[C@H]2O)cc1)c1cccc(S[C@H]2O[C@@H](CO)[C@@H](O)[C@@H](O)[C@@H]2O)c1` (single isomer, unassigned), for which the Kd in data set [2] was determined as 0.16 µM. Further, the deltaG in [3] was -9.25 kcal/mol. The deltaH in [4] was -21.6 kcal/mol. The TdeltaS in [5] is -12.3 kcal/mol. The Activity was 90% in [7] and “Non-Toxic” in data set [10]. Also, the “log(activity)” value in data set [8] came to 1. Further, the viability in [9] was found to be 91.4%; in data set [13] it was 5.2%; in [14], 65.1%. In addition, the MIC in data set [11] was > 5 mM. For the same compound, the MBC in data set [12] was > 5 mM.
For `COc1ccc(C(=O)c2cc(OC)c(OC)c(OC)c2)cc1S[C@@H]1O[C@H](CO)[C@H](O)[C@H](O)[C@H]1O`, the Kd in [2] was 1.02 µM. Besides, the deltaG in data set [3] was -8.17 kcal/mol. The deltaH in [4] was -13 kcal/mol. For the same compound, the TdeltaS in data set [5] was -4.85 kcal/mol. Further, the figures for the Activity result in data set [15], in [16] and in [10] were “Dose-Dependent Effect”, 100% and “Non-Toxic”, respectively. The viability was found to be 61.5% in data set [9], 7.1% in [13] and 41.1% in data set [14]. For the same compound, the MIC in data set [11] was > 5 mM. Besides, in [12], the MBC was > 5 mM.
As to `Cc1cc(=O)oc2cc(S[C@@H]3O[C@H](CO)[C@H](O)[C@H](O)[C@H]3O)ccc12`, in data set [6], the Kd was 5.4 µM.
Regarding `C=C(c1ccc(OC)cc1)c1cccc(S[C@@H]2O[C@H](CO)[C@H](O)[C@H](O)[C@H]2O)c1`, in data set [2], the Kd came out at 8.1 µM. For the same compound, in [3], the deltaG is -6.96 kcal/mol. Besides, in data set [4], the deltaH is -11.1 kcal/mol. In addition, in data set [5], the TdeltaS is -4.13 kcal/mol.
With `CC(C)c1ccc(S[C@@H]2O[C@H](CO)[C@H](O)[C@H](O)[C@H]2O)cc1`, the Kd in data set [2] was determined as 2.45 µM. Moreover, the deltaG in data set [3] is -7.65 kcal/mol. Moreover, the deltaH in data set [4] is -11.9 kcal/mol. In addition, the TdeltaS in data set [5] was -4.28 kcal/mol.
For the compound `C=C(c1ccc(S[C@@H]2O[C@H](CO)[C@H](O)[C@H](O)[C@H]2O)cc1)c1ccc2ccccc2c1`, in data set [2], the Kd was determined as 9 µM. The deltaG in [3] is -6.88 kcal/mol. The deltaH in data set [4] is -8.41 kcal/mol. Also, in [5], the TdeltaS was -1.53 kcal/mol.
With `CC(C)S[C@@H]1O[C@H](CO)[C@H](O)[C@H](O)[C@H]1O`, in [6], the Kd amounted to 32.4 µM.
`COc1ccc(S[C@@H]2O[C@H](CO)[C@H](O)[C@H](O)[C@H]2O)cc1`: the Kd in data set [2] came out at 11.9 µM. For the same compound, in data set [3], the deltaG is -6.72 kcal/mol. Further, the deltaH in data set [4] was -10.1 kcal/mol. Further, the TdeltaS in data set [5] was -3.39 kcal/mol.
